Assay results reported in patent US20260014170A1, “PRODRUGS FOR DELIVERY OF TE[…] THE CENTRAL NERVOUS SYSTEM” (The Johns Hopkins University, priority 2022, published 2026).

Legend:
[1] = In vitro metabolic stability in rat brain homogenates; assay type: in vitro ADME; settings: 10 μM, 37° C., 0 hour to 1 hour, n=3
Description: In vitro metabolic stability assessment was performed using brain homogenates. For the brain homogenates washed tissues were diluted 10-fold in 0.1-M potassium phosphate buffer and homogenized using a probe sonicator. […] Samples from each incubation at predetermined time points (0, 0.5, and 1h) were quenched with 3X volumes of acetonitrile containing the internal standard (IS; losartan: 0.5 μm). […] Disappearance of the intact compound and release of Testosterone were measured using liquid chromatography tandem mass spectrometry (LC-MS; full scan mode).
The metabolic stability of prodrugs (n=3) was evaluated using rat brain homogenates. The rat brain was homogenized using 100-mM phosphate buffer with 1:10 dilution (w/v). 10 μM concentration of the compounds was incubated at 37° C. and stability was evaluated from 0 hour to 1 hour. After incubation samples were precipitated using acetonitrile containing internal standard and quantified using high-resolution LC-MS/MS.

[2] = female rats, IN, 1.1 mg/kg equivalent of Testosterone, 1h post dose
Description: All prodrugs were administered intranasally (IN) at a dose of 1.1 mg/kg equivalent of Testosterone using a formulation of 5% Tween-80, 5% DMSO and 90% PBS containing 10 mM HEPES. Blood and brain were collected after sacrificing the animals at predetermined time point. Plasma was harvested from blood by centrifugation at 3,000 RPM for 15 min and stored at −80° C. Brain tissues were harvested following blood collection and immediately snap frozen in liquid nitrogen and stored at −80° C. until LC-MS/MS analysis. Calibration standards were prepared using naïve female rat plasma or brain with additions of respective prodrugs. For quantifying the released testosterone in the pharmacokinetic samples, plasma samples (20 μL) were processed by protein precipitation method by addition of 200 μL of acetonitrile containing internal standard (losartan: 0.5 μM), followed by vortex-mixing for 30 s and then centrifugation at 10,000 RPM for 10 min at 4° C. Brain tissues were diluted 1:5 w/v with acetonitrile containing losartan (0.5 μm) and homogenized, followed by vortex-mixing and centrifugation at 10,000 RPM for 10 min at 4° C. A 50 μL aliquot of the supernatant was diluted with 50 μL of water and transferred to 250 μL polypropylene autosampler vials sealed with teflon caps. Then, 2 μL of the sample was injected into the LC-MS/MS system for analysis.
The in vivo pharmacokinetics of prodrugs (P1, P3, P4, P5, P6, P7, P8, P9, P10, P11, P12, P13 and P14) were evaluated in female rats.

Row | Structure (SMILES) | stability in rat brain homogenate [1] | levels of testosterone release [2] | plasma levels compared with testosterone [2] | stable in brain homogenate [1] [%]
1 | C[C@]12CC[C@H]3[C@@H](CCC4=CC(=O)CC[C@@]43C)[C@@H]1CC[C@@H]2OC(=O)C(Cl)Cl [Prodrug P7, (8R,9S,10R,13S,14S,17S)-10,13-Dimethyl-3-oxo-2,3,6,7,8,9,10,11,12,13,14,15,16,17-tetradecahydro-1H-cyclopenta[α]phenanthren-17-yl 2,2-dichloroacetate] | moderately stable |  |  | 
2 | CN(C)CC(=O)NCC(=O)NCC(=O)O[C@H]1CC[C@H]2[C@@H]3CCC4=CC(=O)CC[C@]4(C)[C@H]3CC[C@]12C [Prodrug P9, (8R,9S,10R,13S,14S,17S)-10,13-Dimethyl-3-oxo-2,3,6,7,8,9,10,11,12,13,14,15,16,17-tetradecahydro-1H-cyclopenta[α]phenanthren-17-yl dimethylglycylglycylglycinate] | stable |  |  | 
3 | CC(C)[C@H](N)C(=O)N[C@@H](C(=O)O[C@H]1CC[C@H]2[C@@H]3CCC4=CC(=O)CC[C@]4(C)[C@H]3CC[C@]12C)C(C)C [Prodrug P4, (8R,9S,10R,13S,14S,17S)-10,13-Dimethyl-3-oxo-2,3,6,7,8,9,10,11,12,13,14,15,16,17-tetradecahydro-1H-cyclopenta[α]phenanthren-17-yl L-valyl-D-valinate] |  | low levels |  | 
4 | CC(C)C[C@H](NC(=O)CN(C)C)C(=O)O[C@H]1CC[C@H]2[C@@H]3CCC4=CC(=O)CC[C@]4(C)[C@H]3CC[C@]12C [Prodrug P11, (8R,9S,10R,13S,14S,17S)-10,13-Dimethyl-3-oxo-2,3,6,7,8,9,10,11,12,13,14,15,16,17-tetradecahydro-1H-cyclopenta[α]phenanthren-17-yl dimethylglycyl-L-leucinate] | stable |  |  | 
5 | C[C@]12CC[C@H]3[C@@H](CCC4=CC(=O)CC[C@@]43C)[C@@H]1CC[C@@H]2OC(=O)CN1CCOCC1 [Prodrug P6, (8R,9S,10R,13S,14S,17S)-10,13-Dimethyl-3-oxo-2,3,6,7,8,9,10,11,12,13,14,15,16,17-tetradecahydro-1H-cyclopenta[α]phenanthren-17-yl 2-morpholinoacetate] | stable | low levels |  | 
6 | C[C@]12CC[C@H]3[C@@H](CCC4=CC(=O)CC[C@@]43C)[C@@H]1CC[C@@H]2OC(=O)CNC(=O)CN [Prodrug P10, (8R,9S,10R,13S,14S,17S)-10,13-Dimethyl-3-oxo-2,3,6,7,8,9,10,11,12,13,14,15,16,17-tetradecahydro-1H-cyclopenta[α]phenanthren-17-yl glycylglycinate] | moderately stable |  |  | 
7 | CN(C)CC(=O)O[C@H]1CC[C@H]2[C@@H]3CCC4=CC(=O)CC[C@]4(C)[C@H]3CC[C@]12C [Prodrug P3, (8R,9S,10R,13S,14S,17S)-10,13-Dimethyl-3-oxo-2,3,6,7,8,9,10,11,12,13,14,15,16,17-tetradecahydro-1H-cyclopenta[α]phenanthren-17-yl dimethylglycinate] | moderately stable |  | lower | 
8 | CN(C)CC(=O)N[C@@H](Cc1ccccc1)C(=O)O[C@H]1CC[C@H]2[C@@H]3CCC4=CC(=O)CC[C@]4(C)[C@H]3CC[C@]12C [Prodrug P12, (8R,9S,10R,13S,14S,17S)-10,13-Dimethyl-3-oxo-2,3,6,7,8,9,10,11,12,13,14,15,16,17-tetradecahydro-1H-cyclopenta[α]phenanthren-17-yl dimethylglycyl-L-phenylalaninate] | stable |  | lower | 
9 | CC(C)OC(=O)OCO[C@H]1CC[C@H]2[C@@H]3CCC4=CC(=O)CC[C@]4(C)[C@H]3CC[C@]12C [Prodrug P1, (((8R,9S,10R,13S,14S,17S)-10,13-Dimethyl-3-oxo-2,3,6,7,8,9,10,11,12,13,14,15,16,17-tetradecahydro-1H-cyclopenta[α]phenanthren-17-yl)oxy)methyl isopropyl carbonate] |  |  | lower | 20
10 | CN(C)CC(=O)NCC(=O)O[C@H]1CC[C@H]2[C@@H]3CCC4=CC(=O)CC[C@]4(C)[C@H]3CC[C@]12C [Prodrug P8, (8R,9S,10R,13S,14S,17S)-10,13-Dimethyl-3-oxo-2,3,6,7,8,9,10,11,12,13,14,15,16,17-tetradecahydro-1H-cyclopenta[α]phenanthren-17-yl dimethylglycylglycinate] | stable | low levels |  | 
11 | CC(=O)N[C@@H](CCC(=O)O[C@H]1CC[C@H]2[C@@H]3CCC4=CC(=O)CC[C@]4(C)[C@H]3CC[C@]12C)C(=O)O [Prodrug P13, (S)-2-Acetamido-5-(((8R,9S,10R,13S,14S,17S)-10,13-dimethyl-3-oxo-2,3,6,7,8,9,10,11,12,13,14,15,16,17-tetradecahydro-1H-cyclopenta[α]phenanthren-17-yl)oxy)-5-oxopentanoic acid] | stable | low levels |  | 
12 | C[C@]12CC[C@H]3[C@@H](CCC4=CC(=O)CC[C@@]43C)[C@@H]1CC[C@@H]2OC(=O)CC[C@H](N)C(=O)O [Prodrug P14, (S)-2-Amino-5-(((8R,9S,10R,13S,14S,17S)-10,13-dimethyl-3-oxo-2,3,6,7,8,9,10,11,12,13,14,15,16,17-tetradecahydro-1H-cyclopenta[α]phenanthren-17-yl)oxy)-5-oxopentanoic acid] | stable | low levels |  | 
13 | CN1CCN(CC(=O)O[C@H]2CC[C@H]3[C@@H]4CCC5=CC(=O)CC[C@]5(C)[C@H]4CC[C@]23C)CC1 [Prodrug P5, (8R,9S,10R,13S,14S,17S)-10,13-Dimethyl-3-oxo-2,3,6,7,8,9,10,11,12,13,14,15,16,17-tetradecahydro-1H-cyclopenta[α]phenanthren-17-yl 2-(4-methylpiperazin-1-yl)acetate] | stable | low levels |  | 
